From patent US20100267561A1, “HERBICIDAL PYRIDAZINONE DERIVATIVES” (priority 2007, published 2010)

How the values were obtained:
Type in all cases: in vivo
[1] = test system: pigweed (Amaranthus retroflexus); experiment: Test A pre-/postemergence plant response
Method in brief: (§1)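 Ratings are visual, 0–100, where 100 means complete control and 0 no effect, taken roughly 10 days after treatment by comparison with untreated controls. Formulation: non-phytotoxic solvent mixture with surfactant.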

corn (Zea mays) = experiment: Test A pre-/postemergence plant response
Method in brief: as §1

[2] = test system: barnyardgrass (Echinochloa crus-galli); experiment: Test A pre-/postemergence plant response
Method in brief: as §1

[3] = test system: morningglory (Ipomoea coccinea); experiment: Test A pre-/postemergence plant response
Method in brief: as §1

[4] = test system: giant foxtail (Setaria faberi); experiment: Test A pre-/postemergence plant response
Method in brief: as §1

[5] = test system: wheat (Triticum aestivum); experiment: Test A pre-/postemergence plant response
Method in brief: as §1

[6] = test system: velvetleaf (Abutilon theophrasti); experiment: Test A pre-/postemergence plant response
Method in brief: as §1

[7] = test system: large crabgrass (Digitaria sanguinalis); experiment: Test A pre-/postemergence plant response
Method in brief: as §1

[8] = test system: johnsongrass (Sorghum halepense); experiment: Test B pre-/postemergence plant response
Method in brief: (§2)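 Preemergence and postemergence (plants 2-18 cm, 1- to 4-leaf stage) applications used test chemicals in a non-phytotoxic solvent with surfactant. Plants were held in a greenhouse 13 to 15 days, then rated visually against controls on a 0-100 scale (0 no effect, 100 complete control).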

[9] = test system: green foxtail (Setaria viridis); experiment: Test B pre-/postemergence plant response
Method in brief: as §2

[10] = test system: wheat (Triticum aestivum); experiment: Test B pre-/postemergence plant response
Method in brief: as §2

[11] = Postemergence, 125 g ai/ha, 0 to 100 scale, 0 no effect, 100 complete control
[12] = Postemergence, 500 g ai/ha, 0 to 100 scale, 0 no effect, 100 complete control
[13] = Preemergence, 125 g ai/ha, 0 to 100 scale (0 no effect, 100 complete control)
[14] = Preemergence, 500 g ai/ha, 0 to 100 scale (0 no effect, 100 complete control)
[15] = 8 g ai/ha, postemergence, 0-100 scale
[16] = Postemergence, 16 g ai/ha, scale 0 to 100
[17] = Postemergence, 31 g ai/ha, scale 0 to 100, 0 no effect, 100 complete control
[18] = Postemergence, 62 g ai/ha, scale 0 to 100
[19] = Preemergence, 16 g ai/ha, scale 0 to 100 (0 no effect, 100 complete control)
[20] = Preemergence, 31 g ai/ha, 0 to 100 scale, 0 no effect, 100 complete control
[21] = Preemergence, 62 g ai/ha, scale 0 to 100
[22] = Preemergence, 8 g ai/ha, scale 0 to 100
[23] = Postemergence, 31 g ai/ha, 0 to 100 scale (0 no effect, 100 complete control)
[24] = Preemergence, 31 g ai/ha, 0 to 100 scale, 0 is no effect, 100 is complete control
[25] = Preemergence, 16 g ai/ha, scale 0 to 100

CCc1cc(-c2ccc(C(F)(F)F)cc2)nn1-c1c(OS(C)(=O)=O)cnn(C)c1=O [Compound 19]
60: Plant response rating, Wheat [5, 11] | Foxtail, Green plant response rating [9, 15] | Plant response rating, Wheat [10, 16]
40: Johnsongrass plant response rating [8, 15]
10: Plant response rating, Wheat [10, 19]
98: Plant response rating, Wheat [10, 18]
80: Plant response rating, Corn (corn (Zea mays); [13]) | Plant response rating, Johnsongrass [8, 16] | Johnsongrass plant response rating [8, 22]
100: Plant response rating, Barnyardgrass [2, 11] | Plant response rating, Barnyardgrass [2, 12] | Plant response rating, Barnyardgrass [2, 13] | Plant response rating, Barnyardgrass [2, 14] | Plant response rating, Foxtail, Giant [4, 11] | Plant response rating, Foxtail, Giant [4, 12] | Plant response rating, Foxtail, Giant [4, 13] | Plant response rating, Foxtail, Giant [4, 14] | Plant response rating, Wheat [5, 14] | Plant response rating, Crabgrass, Large [7, 12] | Plant response rating, Crabgrass, Large [7, 13] | Plant response rating, Crabgrass, Large [7, 14] | Plant response rating, Johnsongrass [8, 17] | Plant response rating, Johnsongrass [8, 18] | Plant response rating, Johnsongrass [8, 19] | Plant response rating, Johnsongrass [8, 20] | Plant response rating, Johnsongrass [8, 21] | Plant response rating, Foxtail, Green [9, 16] | Plant response rating, Foxtail, Green [9, 17] | Plant response rating, Foxtail, Green [9, 18] | Plant response rating, Foxtail, Green [9, 19] | Plant response rating, Foxtail, Green [9, 20] | Plant response rating, Foxtail, Green [9, 21]
90: Plant response rating, Corn (corn (Zea mays); [11]) | Plant response rating, Corn (corn (Zea mays); [12]) | Plant response rating, Corn (corn (Zea mays); [14]) | Plant response rating, Wheat [5, 12] | Plant response rating, Wheat [5, 13] | Plant response rating, Crabgrass, Large [7, 11] | Plant response rating, Wheat [10, 20]
85: Foxtail, Green plant response rating [9, 22] | Plant response rating, Wheat [10, 17]
95: Plant response rating, Wheat [10, 21]
0: Plant response rating, Pigweed [1, 11] | Plant response rating, Pigweed [1, 12] | Plant response rating, Pigweed [1, 13] | Plant response rating, Pigweed [1, 14] | Plant response rating, Morningglory [3, 11] | Plant response rating, Morningglory [3, 12] | Plant response rating, Morningglory [3, 13] | Plant response rating, Morningglory [3, 14] | Plant response rating, Velvetleaf [6, 11] | Plant response rating, Velvetleaf [6, 12] | Plant response rating, Velvetleaf [6, 13] | Plant response rating, Velvetleaf [6, 14] | Wheat plant response rating [10, 15] | Wheat plant response rating [10, 22]

CCc1cc(-c2ccc(F)cc2)nn1-c1c(O)cnn(C)c1=O [Compound 25]
55: Foxtail, Green plant response rating [9, 15]
50: Plant response rating, Corn (corn (Zea mays); [13]) | Plant response rating, Barnyardgrass [2, 24] | Plant response rating, Wheat [5, 13] | Foxtail, Green plant response rating [9, 22]
90: Plant response rating, Foxtail, Giant [4, 23] | Plant response rating, Crabgrass, Large [7, 11] | Plant response rating, Crabgrass, Large [7, 13]
20: Plant response rating, Corn (corn (Zea mays); [23]) | Plant response rating, Wheat [5, 11] | Plant response rating, Crabgrass, Large [7, 24]
70: Plant response rating, Foxtail, Green [9, 16]
100: Plant response rating, Barnyardgrass [2, 11] | Plant response rating, Barnyardgrass [2, 13] | Plant response rating, Foxtail, Giant [4, 11] | Plant response rating, Foxtail, Giant [4, 13]
0: Plant response rating, Pigweed [1, 23] | Plant response rating, Pigweed [1, 11] | Plant response rating, Pigweed [1, 24] | Plant response rating, Pigweed [1, 13] | Plant response rating, Corn (corn (Zea mays); [24]) | Plant response rating, Morningglory [3, 23] | Plant response rating, Morningglory [3, 11] | Plant response rating, Morningglory [3, 24] | Plant response rating, Morningglory [3, 13] | Plant response rating, Wheat [5, 23] | Plant response rating, Wheat [5, 24] | Plant response rating, Velvetleaf [6, 23] | Plant response rating, Velvetleaf [6, 11] | Plant response rating, Velvetleaf [6, 24] | Plant response rating, Velvetleaf [6, 13] | Johnsongrass plant response rating [8, 15] | Plant response rating, Johnsongrass [8, 16] | Plant response rating, Johnsongrass [8, 17] | Plant response rating, Johnsongrass [8, 19] | Plant response rating, Johnsongrass [8, 20] | Plant response rating, Johnsongrass [8, 21] | Johnsongrass plant response rating [8, 22] | Wheat plant response rating [10, 15] | Plant response rating, Wheat [10, 16] | Plant response rating, Wheat [10, 17] | Plant response rating, Wheat [10, 18] | Plant response rating, Wheat [10, 19] | Plant response rating, Wheat [10, 20] | Wheat plant response rating [10, 22]
15: Plant response rating, Wheat [10, 21]
60: Plant response rating, Crabgrass, Large [7, 23]
40: Plant response rating, Foxtail, Giant [4, 24]
30: Plant response rating, Johnsongrass [8, 18]
98: Plant response rating, Foxtail, Green [9, 18] | Plant response rating, Foxtail, Green [9, 19] | Plant response rating, Foxtail, Green [9, 20] | Plant response rating, Foxtail, Green [9, 21]
80: Plant response rating, Corn (corn (Zea mays); [11]) | Plant response rating, Barnyardgrass [2, 23] | Plant response rating, Foxtail, Green [9, 17]

Cc1cc(-c2ccc(Cl)cc2)nn1-c1c(OS(=O)(=O)c2ccccc2[N+](=O)[O-])cnn(C)c1=O [Compound 51]
20: Plant response rating, Corn (corn (Zea mays); [23]) | Plant response rating, Corn (corn (Zea mays); [24]) | Plant response rating, Barnyardgrass [2, 23] | Plant response rating, Foxtail, Giant [4, 23] | Plant response rating, Crabgrass, Large [7, 23]
40: Plant response rating, Wheat [5, 11] | Plant response rating, Wheat [5, 24]
0: Plant response rating, Pigweed [1, 23] | Plant response rating, Pigweed [1, 11] | Plant response rating, Pigweed [1, 13] | Plant response rating, Morningglory [3, 23] | Plant response rating, Morningglory [3, 11] | Plant response rating, Morningglory [3, 24] | Plant response rating, Morningglory [3, 13] | Plant response rating, Wheat [5, 23] | Plant response rating, Velvetleaf [6, 23] | Plant response rating, Velvetleaf [6, 11] | Plant response rating, Velvetleaf [6, 24] | Plant response rating, Velvetleaf [6, 13] | Wheat plant response rating [10, 22] | Wheat plant response rating [10, 25]
100: Plant response rating, Barnyardgrass [2, 13] | Plant response rating, Foxtail, Giant [4, 13] | Plant response rating, Crabgrass, Large [7, 13] | Plant response rating, Foxtail, Green [9, 21]
70: Plant response rating, Foxtail, Giant [4, 11] | Plant response rating, Crabgrass, Large [7, 11] | Plant response rating, Johnsongrass [8, 20]
80: Plant response rating, Corn (corn (Zea mays); [13]) | Plant response rating, Barnyardgrass [2, 11] | Plant response rating, Barnyardgrass [2, 24] | Plant response rating, Wheat [5, 13] | Plant response rating, Johnsongrass [8, 21]
60: Plant response rating, Corn (corn (Zea mays); [11]) | Plant response rating, Wheat ([10]; Preemergence, 62 g ai/ha, 0 to 100 scale, 0 no effect, 100 complete control)
98: Plant response rating, Foxtail, Green [9, 20]
10: Plant response rating, Wheat ([10]; Preemergence, 31 g ai/ha, scale 0 to 100 (0 no effect, 100 complete control))
50: Johnsongrass plant response rating [8, 25] | Foxtail, Green plant response rating [9, 22]
90: Plant response rating, Foxtail, Giant [4, 24] | Plant response rating, Crabgrass, Large [7, 24] | Foxtail, Green plant response rating [9, 25]
